For 32 molecules, AC50 results are on record in US20250171438A1 (Agios Pharmaceuticals, Inc., priority 2022, published 2025).

One may read the AC50 as the midpoint of the concentration-response curve, whichever way the signal moves.

The target of this assay is T1, human PAH with the R408W mutation (Homo sapiens, UniProt P00439, R408W).
T1 construct: expressed in transfected cells
T1 sequence (P00439 1-452 R408W): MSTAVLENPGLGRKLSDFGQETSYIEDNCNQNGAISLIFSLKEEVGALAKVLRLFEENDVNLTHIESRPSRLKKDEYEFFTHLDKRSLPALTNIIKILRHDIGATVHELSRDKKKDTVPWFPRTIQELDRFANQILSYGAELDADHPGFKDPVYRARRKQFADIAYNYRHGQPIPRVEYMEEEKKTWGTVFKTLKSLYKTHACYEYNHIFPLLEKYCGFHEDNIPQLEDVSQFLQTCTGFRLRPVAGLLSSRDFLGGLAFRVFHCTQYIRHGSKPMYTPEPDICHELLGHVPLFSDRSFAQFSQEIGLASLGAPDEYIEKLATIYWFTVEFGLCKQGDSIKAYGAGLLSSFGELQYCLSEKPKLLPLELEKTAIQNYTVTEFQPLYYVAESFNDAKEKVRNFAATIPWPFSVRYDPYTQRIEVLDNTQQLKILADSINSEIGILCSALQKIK
As to the kind of experiment: Cell Based Phenylalanine Flux Assay. As to conditions: A375 cells expressing human R408W PAH; 24 hrs with compound; 13C-Tyrosine by LC-MS; average where tested multiple times; read-out: AC50.

The structures appear in SMILES notation.

On to `O=C(CCc1cncs1)N1CCc2[nH]cnc2[C@H]1c1nc2ccccc2[nH]1` [(S)-1-(4-(1H-benzo[d]imidazol-2-yl)-1,4,6,7-tetrahydro-5H-imidazo[4,5-c]pyridin-5-yl)-3-(thiazol-5-yl)propan-1-one], for which the concentration at half-maximal activity (AC50) was > 5 µM. The result for `O=C(CCCc1ccc(F)cc1)N1CCc2[nH]cnc2[C@H]1c1nc2ccccc2[nH]1` [(S)-1-(4-(1H-benzo[d]imidazol-2-yl)-1,4,6,7-tetrahydro-5H-imidazo[4,5-c]pyridin-5-yl)-4-(4-fluorophenyl)butan-1-one] reads 1 to 5 µM. With `O=C(CCCc1nc2ccccc2s1)N1CCc2[nH]cnc2[C@H]1c1nc2ccccc2[nH]1` [(S)-1-(4-(1H-benzo[d]imidazol-2-yl)-1,4,6,7-tetrahydro-5H-imidazo[4,5-c]pyridin-5-yl)-4-(benzo[d]thiazol-2-yl)butan-1-one], the half-maximal activity concentration (AC50) was 1 to 5 µM. Take `O=C(CCCc1nccs1)N1CCc2[nH]cnc2[C@H]1c1nc2ccccc2[nH]1` [(S)-1-(4-(1H-benzo[d]imidazol-2-yl)-1,4,6,7-tetrahydro-5H-imidazo[4,5-c]pyridin-5-yl)-4-(thiazol-2-yl)butan-1-one]: the concentration at half-maximal activity (AC50) lay within 1 to 5 µM.

For `O=C(Cn1cncn1)N1CCc2[nH]cnc2[C@H]1c1nc2ccccc2[nH]1` [(S)-1-(4-(1H-benzo[d]imidazol-2-yl)-6,7-dihydro-1H-imidazo[4,5-c]pyridin-5(4H)-yl)-2-(1H-1,2,4-triazol-1-yl)ethanone], the AC50 was > 5 µM. In the case of `O=C(Cc1coc(C(F)F)n1)N1CCc2[nH]cnc2[C@H]1c1nc2ccccc2[nH]1` [(S)-1-(4-(1H-benzo[d]imidazol-2-yl)-6,7-dihydro-1H-imidazo[4,5-c]pyridin-5(4H)-yl)-2-(2-(difluoromethyl)oxazol-4-yl)ethanone], the concentration at half-maximal activity (AC50) was 1 to 5 µM. The result for `Cc1ncc(CC(=O)N2CCc3[nH]cnc3[C@H]2c2nc3ccccc3[nH]2)o1` [(S)-1-(4-(1H-benzo[d]imidazol-2-yl)-6,7-dihydro-1H-imidazo[4,5-c]pyridin-5(4H)-yl)-2-(2-methyloxazol-5-yl)ethanone] reads > 5 µM. `Cc1ncoc1CC(=O)N1CCc2[nH]cnc2[C@H]1c1nc2ccccc2[nH]1` [(S)-1-(4-(1H-benzo[d]imidazol-2-yl)-6,7-dihydro-1H-imidazo[4,5-c]pyridin-5(4H)-yl)-2-(4-methyloxazol-5-yl)ethanone]: the AC50 fell in the range of 1 to 5 µM. With `O=C(Cc1cnco1)N1CCc2[nH]cnc2[C@H]1c1nc2ccccc2[nH]1` [(S)-1-(4-(1H-benzo[d]imidazol-2-yl)-6,7-dihydro-1H-imidazo[4,5-c]pyridin-5(4H)-yl)-2-(oxazol-5-yl)ethanone], the AC50 is > 5 µM. On to `O=C(Cc1cnn2ccccc12)N1CCc2[nH]cnc2[C@H]1c1nc2ccccc2[nH]1` [(S)-1-(4-(1H-benzo[d]imidazol-2-yl)-6,7-dihydro-1H-imidazo[4,5-c]pyridin-5(4H)-yl)-2-(pyrazolo[1,5-a]pyridin-3-yl)ethanone], for which the half-maximal activity concentration (AC50) is 1 to 5 µM. As to `O=C(Cc1ccccn1)N1CCc2[nH]cnc2[C@H]1c1nc2ccccc2[nH]1` [(S)-1-(4-(1H-benzo[d]imidazol-2-yl)-6,7-dihydro-1H-imidazo[4,5-c]pyridin-5(4H)-yl)-2-(pyridin-2-yl)ethanone], the AC50 lay within 1 to 5 µM. As to `O=C(Cc1cscn1)N1CCc2[nH]cnc2[C@H]1c1nc2ccccc2[nH]1` [(S)-1-(4-(1H-benzo[d]imidazol-2-yl)-6,7-dihydro-1H-imidazo[4,5-c]pyridin-5(4H)-yl)-2-(thiazol-4-yl)ethanone], the AC50 lay in the range of 1 to 5 µM. For the molecule `O=C(Cc1cncs1)N1CCc2[nH]cnc2[C@H]1c1nc2ccccc2[nH]1` [(S)-1-(4-(1H-benzo[d]imidazol-2-yl)-6,7-dihydro-1H-imidazo[4,5-c]pyridin-5(4H)-yl)-2-(thiazol-5-yl)ethanone], the AC50 was 1 to 5 µM. The result for `N#Cc1ccn2ncc(C(=O)N3CCc4[nH]cnc4[C@H]3c3nc4ccccc4[nH]3)c2c1` [(S)-3-(4-(1H-benzo[d]imidazol-2-yl)-4,5,6,7-tetrahydro-1H-imidazo[4,5-c]pyridine-5-carbonyl)pyrazolo[1,5-a]pyridine-5-carbonitrile] reads > 5 µM. Turning to `O=C(c1nc2ccccc2[nH]1)N1CCc2[nH]cnc2[C@H]1c1nc2ccccc2[nH]1` [(S)-(4-(1H-benzo[d]imidazol-2-yl)-1,4,6,7-tetrahydro-5H-imidazo[4,5-c]pyridin-5-yl)(1H-benzo[d]imidazol-2-yl)methanone], the concentration at half-maximal activity (AC50) fell in the range of 1 to 5 µM. On to `O=C(c1n[nH]c2ccccc12)N1CCc2[nH]cnc2[C@H]1c1nc2ccccc2[nH]1` [(S)-(4-(1H-benzo[d]imidazol-2-yl)-1,4,6,7-tetrahydro-5H-imidazo[4,5-c]pyridin-5-yl)(1H-indazol-3-yl)methanone], for which the AC50 is > 5 µM. As to `COc1cccc(C(=O)N2CCc3[nH]cnc3[C@H]2c2nc3ccccc3[nH]2)c1` [(S)-(4-(1H-benzo[d]imidazol-2-yl)-1,4,6,7-tetrahydro-5H-imidazo[4,5-c]pyridin-5-yl)(3-methoxyphenyl)methanone], the concentration at half-maximal activity (AC50) fell in the range of 1 to 5 µM. The result for `O=C(c1nc2c(F)cccc2s1)N1CCc2[nH]cnc2[C@H]1c1nc2ccccc2[nH]1` [(S)-(4-(1H-benzo[d]imidazol-2-yl)-1,4,6,7-tetrahydro-5H-imidazo[4,5-c]pyridin-5-yl)(4-fluorobenzo[d]thiazol-2-yl)methanone] reads 1 to 5 µM. Regarding `O=C(c1cnn2cccc(F)c12)N1CCc2[nH]cnc2[C@H]1c1nc2ccccc2[nH]1` [(S)-(4-(1H-benzo[d]imidazol-2-yl)-1,4,6,7-tetrahydro-5H-imidazo[4,5-c]pyridin-5-yl)(4-fluoropyrazolo[1,5-a]pyridin-3-yl)methanone], the half-maximal activity concentration (AC50) lay within 1 to 5 µM. On to `Cc1csc(C(=O)N2CCc3[nH]cnc3[C@H]2c2nc3ccccc3[nH]2)n1` [(S)-(4-(1H-benzo[d]imidazol-2-yl)-1,4,6,7-tetrahydro-5H-imidazo[4,5-c]pyridin-5-yl)(4-methylthiazol-2-yl)methanone], for which the half-maximal activity concentration (AC50) was in the range of 1 to 5 µM. For the molecule `Cc1cnc(C(=O)N2CCc3[nH]cnc3[C@H]2c2nc3ccccc3[nH]2)s1` [(S)-(4-(1H-benzo[d]imidazol-2-yl)-1,4,6,7-tetrahydro-5H-imidazo[4,5-c]pyridin-5-yl)(5-methylthiazol-2-yl)methanone], the half-maximal activity concentration (AC50) fell in the range of 1 to 5 µM. For `O=C(c1cnn2cc(Br)ccc12)N1CCc2[nH]cnc2[C@H]1c1nc2ccccc2[nH]1` [(S)-(4-(1H-benzo[d]imidazol-2-yl)-1,4,6,7-tetrahydro-5H-imidazo[4,5-c]pyridin-5-yl)(6-bromopyrazolo[1,5-a]pyridin-3-yl)methanone], the concentration at half-maximal activity (AC50) was in the range of 1 to 5 µM. Take `O=C(C1CCCCC1)N1CCc2[nH]cnc2[C@H]1c1nc2ccccc2[nH]1` [(S)-(4-(1H-benzo[d]imidazol-2-yl)-1,4,6,7-tetrahydro-5H-imidazo[4,5-c]pyridin-5-yl)(cyclohexyl)methanone]: the AC50 lay in the range of 1 to 5 µM. Take `O=C(C1CCCC1)N1CCc2[nH]cnc2[C@H]1c1nc2ccccc2[nH]1` [(S)-(4-(1H-benzo[d]imidazol-2-yl)-1,4,6,7-tetrahydro-5H-imidazo[4,5-c]pyridin-5-yl)(cyclopentyl)methanone]: the AC50 lay in the range of 1 to 5 µM. Consider `O=C(C1CC1)N1CCc2[nH]cnc2[C@H]1c1nc2ccccc2[nH]1` [(S)-(4-(1H-benzo[d]imidazol-2-yl)-1,4,6,7-tetrahydro-5H-imidazo[4,5-c]pyridin-5-yl)(cyclopropyl)methanone], for which the AC50 was in the range of 1 to 5 µM.

Take `O=C(c1ccsn1)N1CCc2[nH]cnc2[C@H]1c1nc2ccccc2[nH]1` [(S)-(4-(1H-benzo[d]imidazol-2-yl)-1,4,6,7-tetrahydro-5H-imidazo[4,5-c]pyridin-5-yl)(isothiazol-3-yl)methanone]: the AC50 is 1 to 5 µM. Regarding `O=C(c1cnsc1)N1CCc2[nH]cnc2[C@H]1c1nc2ccccc2[nH]1` [(S)-(4-(1H-benzo[d]imidazol-2-yl)-1,4,6,7-tetrahydro-5H-imidazo[4,5-c]pyridin-5-yl)(isothiazol-4-yl)methanone], the AC50 is 1 to 5 µM.

On to `O=C(c1ccns1)N1CCc2[nH]cnc2[C@H]1c1nc2ccccc2[nH]1` [(S)-(4-(1H-benzo[d]imidazol-2-yl)-1,4,6,7-tetrahydro-5H-imidazo[4,5-c]pyridin-5-yl)(isothiazol-5-yl)methanone], for which the AC50 was 1 to 5 µM. On to `O=C(c1ccon1)N1CCc2[nH]cnc2[C@H]1c1nc2ccccc2[nH]1` [(S)-(4-(1H-benzo[d]imidazol-2-yl)-1,4,6,7-tetrahydro-5H-imidazo[4,5-c]pyridin-5-yl)(isoxazol-3-yl)methanone], for which the concentration at half-maximal activity (AC50) lay within 1 to 5 µM.

Consider `O=C(c1ncco1)N1CCc2[nH]cnc2[C@H]1c1nc2ccccc2[nH]1` [(S)-(4-(1H-benzo[d]imidazol-2-yl)-1,4,6,7-tetrahydro-5H-imidazo[4,5-c]pyridin-5-yl)(oxazol-2-yl)methanone], for which the AC50 lay within 1 to 5 µM. On to `O=C(c1cnco1)N1CCc2[nH]cnc2[C@H]1c1nc2ccccc2[nH]1` [(S)-(4-(1H-benzo[d]imidazol-2-yl)-1,4,6,7-tetrahydro-5H-imidazo[4,5-c]pyridin-5-yl)(oxazol-5-yl)methanone], for which the AC50 lay within 1 to 5 µM. As to `O=C(c1ccccn1)N1CCc2[nH]cnc2[C@H]1c1nc2ccccc2[nH]1` [(S)-(4-(1H-benzo[d]imidazol-2-yl)-1,4,6,7-tetrahydro-5H-imidazo[4,5-c]pyridin-5-yl)(pyridin-2-yl)methanone], the half-maximal activity concentration (AC50) lay within 1 to 5 µM.
